Source: EP0700399B1, “36-DERIVATIVES OF RIFAMYCINS AND THEIR USE AS ANTIMICROBIAL AGENTS” (GRUPPO LEPETIT S.P.A., priority 1993, dated 1994)
Like-named read-outs stand apart in the source and are kept apart here.

How the values were obtained:
[1] = tested on: Bacteroides fragilis ATCC 25285; experiment: MIC by broth microdilution; type: cell-based; settings: Bacteroides fragilis, ATCC25285; internal code L1011; anaerobic, 48 hours; read-out: MIC of the compounds
Neisseria gonorrhoeae = experiment: MIC by broth microdilution; type: cell-based; settings: Neisseria gonorrhoeae; internal code L997; 5% carbon dioxide, 48 hours; read-out: MIC of the compounds
Strept. pneumoniae = experiment: MIC by broth microdilution; type: cell-based; settings: Streptococcus pneumoniae; internal code L44; read-out: MIC of the compounds
[2] = tested on: Propionibact. acnes ATCC 6919; experiment: MIC by broth microdilution; type: cell-based, Propionibacterium acnes; settings: Cutibacterium acnes, ATCC6919; internal code L1014; anaerobic, 48 hours; read-out: MIC of the compounds
Staphylococcus aureus = experiment: MIC by broth microdilution; type: cell-based; settings: Staphylococcus aureus; internal code L165; read-out: MIC of the compounds
Staph. aureus Smith = experiment: MIC by broth microdilution; type: cell-based; settings: Staphylococcus aureus; internal code L819; read-out: MIC of the compounds
[3] = tested on: Proteus vulgaris ATCC 881; experiment: MIC by broth microdilution; type: cell-based; settings: Proteus vulgaris, ATCC881; internal code L79; read-out: MIC of the compounds
[4] = tested on: Enterococc. faecalis ATCC 7080; experiment: MIC by broth microdilution; type: cell-based, Enterococcus faecalis; settings: Enterococcus faecalis, ATCC7080; internal code L149; read-out: MIC of the compounds
[5] = tested on: Staphylococcus aureus Smith (Int. code L 819); experiment: Experimental septicemia in mice; type: in vivo; settings: Staphylococcus aureus, 168 h, treated once immediately after infection, survival on the 7th day
Experimental: Some compounds of the invention were also tested in experimental septicemia in mice infected with Staphylococcus aureus Smith (Int. code L 819). For this purpose, groups of five mice were infected intraperitoneally with about 1 x 10^6 CFU of S. aureus Smith suspended in 0.5 ml of Difco bacteriological mucin. Untreated animals died within 48 hours. The other animals were treated once immediately after infection. On the 7th day the value of ED50 (expressed in mg/kg) was calculated by the method of Spearman-[…]., Statistical method in biological assay, page 254, C. Griffin Ltd., London, 1952), on the basis of the percentage of animals surviving at each dose.

[6] = tested on: Haemoph. influenzae ATCC 19418; experiment: MIC by broth microdilution; type: cell-based, Haemophilus influenzae; settings: Haemophilus influenzae, ATCC19418; internal code L970; 5% carbon dioxide, 48 hours; read-out: MIC of the compounds
Streptococcus pyogenes = experiment: MIC by broth microdilution; type: cell-based; settings: Streptococcus pyogenes; internal code L49; read-out: MIC of the compounds
Staph. aureus rifa-r^(1) = experiment: MIC by broth microdilution; type: cell-based; settings: Staphylococcus aureus, read-out: MIC of the compounds
[7] = tested on: Staph. epidermidis ATCC 12228; experiment: MIC by broth microdilution; type: cell-based; settings: Staphylococcus epidermidis, ATCC12228; internal code L147; read-out: MIC of the compounds
[8] = tested on: Pseudomonas aerug. ATCC10145; experiment: MIC by broth microdilution; type: cell-based, Pseudomonas aeruginosa; settings: Pseudomonas, ATCC10145; internal code L4; read-out: MIC of the compounds
Escherichia coli = experiment: MIC by broth microdilution; type: cell-based; settings: Escherichia coli; internal code L47; read-out: MIC of the compounds
Staph. aureus rifa-r^(2) = experiment: MIC by broth microdilution; type: cell-based; settings: Staphylococcus aureus, read-out: MIC of the compounds
[9] = tested on: Staph. haemolyticus rifa-r^(2); experiment: MIC by broth microdilution; type: cell-based; settings: Staphylococcus haemolyticus, read-out: MIC of the compounds
[10] = intravenous, read-out: ED50 IV route
[11] = sc, subcutaneous, read-out: ED50 SC route

Compound	MIC [1] [µg/mL]	MIC (Neisseria gonorrhoeae) [µg/mL]	MIC (Strept. pneumoniae) [µg/mL]	MIC [2] [µg/mL]	MIC (Staphylococcus aureus) [µg/mL]	MIC (Staph. aureus Smith) [µg/mL]	MIC [3] [µg/mL]	MIC [4] [µg/mL]	ED50 [5, 10] [mg/kg]	ED50 [5, 11] [mg/kg]	MIC [6] [µg/mL]	MIC (Streptococcus pyogenes) [µg/mL]	MIC (Staph. aureus rifa-r^(1)) [µg/mL]	MIC [7] [µg/mL]	MIC [8] [µg/mL]	MIC (Escherichia coli) [µg/mL]	MIC (Staph. aureus rifa-r^(2)) [µg/mL]	MIC [9] [µg/mL]
CCn1cc(C(=O)OCC(=O)O[C@H]2[C@H](C)[C@H](O)[C@H](C)[C@@H](O)[C@@H](C)/C=C/C=C(/C)C(=O)Nc3c(C=NN4CCN(C5CCCC5)CC4)c(O)c4c5c(c(C)c(O)c4c3O)O[C@](C)(O/C=C/[C@H](OC)[C@H]2C)C5=O)c(=O)c2cc(F)c(N3CCN(C)CC3)cc21 [Compound C26, 3-[[(4-Cyclopentyl-1-piperazinyl)-imino]methyl}-36-{[1-ethyl-6-fluoro-1,4-dihydro-7-(4-methyl-1-piperazinyl)-4-oxo-3-quinolinyl]carbonyloxy}-rifamycin SV]	1	0.13	0.03	0.13	0.06	0.13	2	4	0.95	1.6	1	0.03	0.13	0.06	32	2	2	0.5
CCn1cc(C(=O)OCC(=O)O[C@H]2[C@H](C)[C@H](O)[C@H](C)[C@@H](O)[C@@H](C)/C=C/C=C(/C)C(=O)Nc3c(C=NN4CCN(C)CC4)c(O)c4c5c(c(C)c(O)c4c3O)O[C@](C)(O/C=C/[C@H](OC)[C@H]2C)C5=O)c(=O)c2cnc(N3CCN(C)CC3)nc21 [Compound C28]	1	0.25	0.008	0.06	0.06	0.06	64	8			2	0.016	0.13	0.06	128	64	2	4
CO[C@H]1/C=C/O[C@@]2(C)Oc3c(C)c(O)c4c(O)c(c(C=NN5CCN(C)CC5)c(O)c4c3C2=O)NC(=O)/C(C)=C\C=C\[C@H](C)[C@H](O)[C@@H](C)[C@@H](O)[C@@H](C)[C@H](OC(=O)COC(=O)c2cn(C3CC3)c3cc(-c4cc(C)nc(C)c4)c(F)cc3c2=O)[C@@H]1C [Compound C29, 36-{[1-Cyclopropyl-6-fluoro-1,4-dihydre-7-(2,6-dimethyl-4-pyridinyl)-4-oxo-3-quinolinyl]-carbonyloxy}-3-{[(4-methyl-1-piperazinyl)imino]-methyl}rifamycin SV]	0.13	0.25	0.016	0.06	0.03	0.03	128	2			0.25	0.016	0.5	0.03	> 128	16	2	8
CCn1cc(C(=O)OCC(=O)O[C@H]2[C@H](C)[C@H](O)[C@H](C)[C@@H](O)[C@@H](C)/C=C/C=C(/C)C(=O)Nc3c(C=NN4CCN(C)CC4)c(O)c4c5c(c(C)c(O)c4c3O)O[C@](C)(O/C=C/[C@H](OC)[C@H]2C)C5=O)c(=O)cc1N1CCN(C)CC1 [Compound C30, 36-{[1-Ethyl-1,4-dihydro-6-(4-methyl-1-piperazinyl)-4-oxo-3-pyridinyl]carbonyloxy]-3-{[(4-methyl-1-piperazinyl)imino]methyl}rifamycin SV]	0.06	0.13	0.008	0.03	0.016	0.016	16	0.25	0.72	1.6	1	0.016	0.5	0.016	32	16	1	4
